Earlier results in patent US9421268B2, “Pediatric oral liquid compositions containing nepadutant” (LABORATORI GUIDOTTI S.P.A., priority 2012, dated 2016).
Bridge positions count the residues as written; N and C are the ends. Square brackets hold non-standard residues; d marks the D form. Peptide text beside a SMILES is read from it. * marks the point of attachment. NH(β-GlcNAc) = CC(=O)N[C@@H]1[C@@H](O)[C@H](O)[C@@H](CO)O[C@H]1N*; Dap = NC[C@H](N)C(=O)O

Assays:
NK2 receptors = target: T1, NK2 receptors (Rattus norvegicus, UniProt P16610); settings: oral, new born rats, basal parameters not altered; cited from earlier work
T1 construct: from tissue; host or cells: intestine of new born rats (in vivo)
T1 sequence (P16610 1-390): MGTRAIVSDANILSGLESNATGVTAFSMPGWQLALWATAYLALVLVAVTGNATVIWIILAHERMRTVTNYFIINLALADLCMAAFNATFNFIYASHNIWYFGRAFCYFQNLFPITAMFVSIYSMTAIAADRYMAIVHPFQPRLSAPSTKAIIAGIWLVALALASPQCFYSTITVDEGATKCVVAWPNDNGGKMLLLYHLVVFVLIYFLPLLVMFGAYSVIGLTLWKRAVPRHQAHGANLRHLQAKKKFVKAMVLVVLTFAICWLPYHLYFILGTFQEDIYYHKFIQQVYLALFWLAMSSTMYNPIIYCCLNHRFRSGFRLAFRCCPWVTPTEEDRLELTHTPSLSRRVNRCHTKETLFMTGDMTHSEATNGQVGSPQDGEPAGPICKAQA

hyperalgesia = settings: new born rats; cited from earlier work
[1] = in vivo; cited from earlier work

In the case of `CC(=O)N[C@@H]1[C@@H](O)[C@H](O)[C@@H](CO)O[C@H]1NC(=O)C[C@@H]1NC(=O)[C@H](CC(C)C)NC(=O)[C@@H]2CNC(=O)C[C@H](NC1=O)C(=O)N[C@@H](Cc1c[nH]c3ccccc13)C(=O)N[C@@H](Cc1ccccc1)C(=O)N2` [Nepadutant, [N^4-(2-acetylamino-2-deoxy-β-D-glucopyranosyl)-L-asparaginyl-L-α-triptophan-L-phenylalanyl-L-2,3-diaminopropio-nil-L-leucil]-C-4.2-N-3.5-lattame-C-1.6-N-2.1-lattame] (cyclo(D(NH(β-GlcNAc))DWF[Dap]L); lactam 2-5), the “time after administration up to which the increase in intestinal transit is blocked” value (NK2 receptors) is listed as “up to 24 hours”, the “efficacy in a model of hyperalgesia” value (hyperalgesia) is listed as “effective” and the oral absorption [1] is listed as “absorbed”.
